Assay results: ChEMBL document CHEMBL1136021, “Design, synthesis, and SAR of substituted acrylamides as factor Xa inhibitors” (Bioorg Med Chem Lett, 2002)

Experiments:
Coagulation factor X [1] = target: T1, Coagulation factor X (Homo sapiens, UniProt P00742); test: Inhibitory activity against factor Xa
Prothrombin = Prothrombin (Homo sapiens, UniProt P00734); test: Inhibitory activity against Factor IIa (serine protease) was determined
Serine protease 1 = Serine protease 1 (Homo sapiens, UniProt P07477); test: Inhibitory activity against trypsin was determined
Coagulation factor X [2] = target: T1, Coagulation factor X; test: Inhibitory activity against Coagulation factor Xa (serine protease) was determined
Coagulation factor X [3] = target: T1, Coagulation factor X; test: Inhibitory activity against factor Xa was determined
Coagulation factor X [4] = target: T1, Coagulation factor X; test: Inhibitory activity against factor Xa, activity expressed as Ki nM

Chain of Serine protease 1 (P07477 whole entry): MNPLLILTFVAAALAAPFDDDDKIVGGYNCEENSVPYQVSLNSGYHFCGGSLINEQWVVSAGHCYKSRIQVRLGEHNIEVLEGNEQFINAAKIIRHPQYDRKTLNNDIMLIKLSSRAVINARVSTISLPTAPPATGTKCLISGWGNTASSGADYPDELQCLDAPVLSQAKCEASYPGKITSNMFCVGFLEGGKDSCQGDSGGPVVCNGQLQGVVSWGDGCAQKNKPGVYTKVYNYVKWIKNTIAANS
T1 sequence (P00742 41-179 limits assumed): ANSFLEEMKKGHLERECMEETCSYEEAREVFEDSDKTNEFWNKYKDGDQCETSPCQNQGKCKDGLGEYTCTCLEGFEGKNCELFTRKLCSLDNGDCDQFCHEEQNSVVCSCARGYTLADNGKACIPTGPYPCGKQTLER
T1 sequence (P00742 235-488 limits assumed): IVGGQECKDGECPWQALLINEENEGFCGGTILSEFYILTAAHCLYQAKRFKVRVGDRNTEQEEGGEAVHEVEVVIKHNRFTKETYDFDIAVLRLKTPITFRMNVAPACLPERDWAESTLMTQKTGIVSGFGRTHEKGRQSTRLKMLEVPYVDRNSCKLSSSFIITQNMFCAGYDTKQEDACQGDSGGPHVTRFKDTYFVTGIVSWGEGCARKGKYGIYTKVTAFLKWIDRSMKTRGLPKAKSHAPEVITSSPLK

SMILES: CC(=CC(=O)Nc1ccc(-c2ccccc2S(N)(=O)=O)cc1)c1cccc(C(=N)N)c1
- IC50 (Coagulation factor X [1]): 4 nM

SMILES: N=C(N)c1cccc(/C(=C\C(=O)Nc2ccc(-c3ccccc3S(N)(=O)=O)cc2)c2ccco2)c1
- IC50 (Coagulation factor X [1]): 184 nM

SMILES: C/C(=C(\F)C(=O)Nc1ccc(-c2ccccc2S(N)(=O)=O)cc1F)c1cc(C(=N)N)ccc1[N+](=O)[O-]
- IC50 (Coagulation factor X [1]): 15 nM

SMILES: N=C(N)c1ccc(F)c(C=CC(=O)Nc2ccc(-c3ccccc3S(N)(=O)=O)cc2)c1
- IC50 (Coagulation factor X [1]): 18 nM

SMILES: CC(=Cc1cccc(C(=N)N)c1)C(=O)Nc1ccc(-c2ccccc2S(N)(=O)=O)cc1
- IC50 (Coagulation factor X [1]): 362 nM

SMILES: CC(=C(F)C(=O)Nc1ccc(-c2ccccc2S(N)(=O)=O)cc1)c1cccc(C(=N)N)c1
- IC50 (Coagulation factor X [1]): 1 nM
- IC50 (Prothrombin): 3190 nM
- IC50 (Serine protease 1): 259 nM

SMILES: C/C(=C(\F)C(=O)Nc1ccc(-c2ccccc2S(N)(=O)=O)cc1F)c1cccc(C(=N)N)c1
- IC50 (Coagulation factor X [1]): 0.2 nM
- IC50 (Prothrombin): 2200 nM
- IC50 (Serine protease 1): 194 nM

SMILES: COc1ccc(C(=N)N)cc1C=CC(=O)Nc1ccc(-c2ccccc2S(N)(=O)=O)cc1
- IC50 (Coagulation factor X [1]): 215 nM

SMILES: CC(=C(F)C(=O)Nc1ccc(-c2ccccc2S(N)(=O)=O)cc1Br)c1cccc(C(=N)N)c1
- IC50 (Coagulation factor X [1]): 0.5 nM
- IC50 (Prothrombin): 503 nM
- IC50 (Serine protease 1): 189 nM

SMILES: N=C(N)c1cccc(C=C(C(=O)Nc2ccc(-c3ccccc3S(N)(=O)=O)cc2)c2ccncc2)c1
- IC50 (Coagulation factor X [1]): 628 nM

SMILES: CC(=C(F)C(=O)Nc1ccc(-c2ccccc2S(N)(=O)=O)cc1Br)c1ccc(F)c(C(=N)N)c1
- IC50 (Coagulation factor X [1]): 0.75 nM

SMILES: CS(=O)(=O)CC(=C(F)C(=O)Nc1ccc(-c2ccccc2S(N)(=O)=O)cc1)c1cccc(C(=N)N)c1
- IC50 (Coagulation factor X [1]): 10 nM

SMILES: N=C(N)c1cccc(C=CC(=O)Nc2ccc(-c3ccccc3S(N)(=O)=O)cc2)c1 [listing 1 of 2 here]
- IC50 (Coagulation factor X [1]): 17 nM

SMILES: CC(C)C(=CC(=O)Nc1ccc(-c2ccccc2S(N)(=O)=O)cc1)c1cccc(C(=N)N)c1
- IC50 (Coagulation factor X [1]): 35 nM

SMILES: N=C(N)c1cccc(C(=CC(=O)Nc2ccc(-c3ccccc3S(N)(=O)=O)cc2)Cn2cnnn2)c1
- IC50 (Coagulation factor X [1]): 53 nM

SMILES: CC(=C(F)C(=O)Nc1ccc(-c2ccccc2S(N)(=O)=O)cc1F)c1ccc(F)c(C(=N)N)c1
- IC50 (Coagulation factor X [1]): 1.5 nM

SMILES: N=C(N)c1cccc(C(=CC(=O)Nc2ccc(-c3ccccc3S(N)(=O)=O)cc2)Cc2cc[nH]n2)c1
- IC50 (Coagulation factor X [1]): 48 nM

SMILES: CCSCC(=C(F)C(=O)Nc1ccc(-c2ccccc2S(N)(=O)=O)cc1)c1cccc(C(=N)N)c1
- IC50 (Coagulation factor X [1]): 13 nM

SMILES: N=C(N)c1cccc(C(=C(F)C(=O)Nc2ccc(-c3ccccc3S(N)(=O)=O)cc2)C(F)(F)F)c1
- IC50 (Coagulation factor X [1]): 3 nM

SMILES: N=C(N)c1cc(C=CC(=O)Nc2ccc(-c3ccccc3S(N)(=O)=O)cc2)ccc1F
- IC50 (Coagulation factor X [1]): 99 nM

SMILES: CCC(=CC(=O)Nc1ccc(-c2ccccc2S(N)(=O)=O)cc1)c1cccc(C(=N)N)c1
- IC50 (Coagulation factor X [1]): 7 nM

SMILES: N=C(N)c1cccc(C(=CC(=O)Nc2ccc(-c3ccccc3S(N)(=O)=O)cc2)C(F)(F)F)c1
- IC50 (Coagulation factor X [1]): 10 nM

SMILES: N=C(N)c1cccc(C=CC(=O)Nc2ccc(-c3ccccc3S(N)(=O)=O)cc2)c1 [listing 2 of 2 here]
- IC50 (Coagulation factor X [2]): 3120 nM

SMILES: CC(C)CC(=CC(=O)Nc1ccc(-c2ccccc2S(N)(=O)=O)cc1)c1cccc(C(=N)N)c1
- IC50 (Coagulation factor X [1]): 5 nM

SMILES: CC(=C(F)C(=O)Nc1ccc(-c2ccccc2S(N)(=O)=O)cc1Cl)c1cccc(C(=N)N)c1
- IC50 (Coagulation factor X [1]): 0.5 nM
- IC50 (Prothrombin): 650 nM
- IC50 (Serine protease 1): 188 nM

SMILES: COC(=O)C(=Cc1cccc(C(=N)N)c1)C(=O)Nc1ccc(-c2ccccc2S(N)(=O)=O)cc1
- IC50 (Coagulation factor X [3]): 759 nM

SMILES: CC(=C(F)C(=O)Nc1ccc(-c2ccccc2S(N)(=O)=O)cc1Cl)c1ccc(F)c(C(=N)N)c1
- IC50 (Coagulation factor X [1]): 0.74 nM
- Ki (Coagulation factor X [4]): 0.18 nM

SMILES: CC(=C(CC(=O)O)C(=O)Nc1ccc(-c2ccccc2S(N)(=O)=O)cc1)c1cccc(C(=N)N)c1
- IC50 (Coagulation factor X [1]): 234 nM

SMILES: COCC(=CC(=O)Nc1ccc(-c2ccccc2S(N)(=O)=O)cc1)c1cccc(C(=N)N)c1
- IC50 (Coagulation factor X [1]): 7 nM

SMILES: N=C(N)c1cccc(C=C(C(=O)Nc2ccc(-c3ccccc3S(N)(=O)=O)cc2)c2ccccn2)c1
- IC50 (Coagulation factor X [1]): 664 nM

SMILES: CN(C)CC(=C(F)C(=O)Nc1ccc(-c2ccccc2S(N)(=O)=O)cc1F)c1cccc(C(=N)N)c1
- IC50 (Coagulation factor X [1]): 191 nM

SMILES: N=C(N)c1cccc(C(CO)=C(F)C(=O)Nc2ccc(-c3ccccc3S(N)(=O)=O)cc2)c1
- IC50 (Coagulation factor X [1]): 3.7 nM

SMILES: CC(=C(F)C(=O)Nc1ccc(-c2ccccc2S(N)(=O)=O)cc1)c1ccc(F)c(C(=N)N)c1
- IC50 (Coagulation factor X [1]): 3.6 nM

SMILES: C/C(=C(\F)C(=O)Nc1ccc(-c2ccccc2S(N)(=O)=O)cc1F)c1cc(C(=N)N)ccc1N
- IC50 (Coagulation factor X [1]): 2.6 nM

SMILES: CC(=C(CC(N)=O)C(=O)Nc1ccc(-c2ccccc2S(N)(=O)=O)cc1)c1cccc(C(=N)N)c1
- IC50 (Coagulation factor X [1]): 99 nM

SMILES: COCCOc1ccc(C(=N)N)cc1C=CC(=O)Nc1ccc(-c2ccccc2S(N)(=O)=O)cc1
- IC50 (Coagulation factor X [1]): 9 nM

SMILES: N=C(N)c1cccc(C(=CC(=O)Nc2ccc(-c3ccccc3S(N)(=O)=O)cc2)Cn2ncnn2)c1
- IC50 (Coagulation factor X [1]): 245 nM

SMILES: COc1ccc(C=CC(=O)Nc2ccc(-c3ccccc3S(N)(=O)=O)cc2)cc1C(=N)N
- IC50 (Coagulation factor X [1]): 6470 nM
